Experimental data as given in ChEMBL document CHEMBL3352684, “Discovery of MK-3697: a selective orexin 2 receptor antagonist (2-SORA) for the treatment of insomnia” (Bioorg Med Chem Lett, 2014).
Where a chain is given by its changes, count along the chain named. Activity calls are given as the source filed them. No cut-off for these calls is given here.

Legend:
[1] = Tmax in rat at dog at 3 mg/kg, po; format: ADME, organism-based, Canis lupus familiaris; set-up: dose 3 mg/kg, route oral; settings: in vivo
[2] = Volume of distribution at steady state in rat at 2 mg/kg, iv; format: ADME, organism-based; set-up: dose 2 mg/kg, route intravenous; settings: in vivo, read-out: Vdss
Mus musculus [3] = test: Reduction in active wake sleep in OX2R-knockout mouse at 100 mg/kg, po after 2 hrs; format: functional, organism-based; set-up: dose 100 mg/kg
[4] = Tmax in rat at 5 mg/kg, po; format: ADME, organism-based; set-up: dose 5 mg/kg, route oral; settings: in vivo
[5] = Tmax in Sprague-Dawley rat at 15 mg/kg, po; format: ADME, organism-based; set-up: dose 15 mg/kg, route oral; settings: in vivo
[6] = Cmax in dog at 3 mg/kg, po; format: ADME, organism-based, Canis lupus familiaris; set-up: dose 3 mg/kg, route oral; settings: in vivo
[7] = Volume of distribution at steady state in dog at 1 mg/kg, iv; format: ADME, organism-based, Canis lupus familiaris; set-up: dose 1 mg/kg, route intravenous; settings: in vivo, read-out: Vdss
[8] = target: T1, Nuclear receptor subfamily 1 group I member 2 (Homo sapiens, UniProt O75469); test: Activation of PXR (unknown origin) at 30 uM relative to rifampicin
T1 sequence (O75469 whole entry): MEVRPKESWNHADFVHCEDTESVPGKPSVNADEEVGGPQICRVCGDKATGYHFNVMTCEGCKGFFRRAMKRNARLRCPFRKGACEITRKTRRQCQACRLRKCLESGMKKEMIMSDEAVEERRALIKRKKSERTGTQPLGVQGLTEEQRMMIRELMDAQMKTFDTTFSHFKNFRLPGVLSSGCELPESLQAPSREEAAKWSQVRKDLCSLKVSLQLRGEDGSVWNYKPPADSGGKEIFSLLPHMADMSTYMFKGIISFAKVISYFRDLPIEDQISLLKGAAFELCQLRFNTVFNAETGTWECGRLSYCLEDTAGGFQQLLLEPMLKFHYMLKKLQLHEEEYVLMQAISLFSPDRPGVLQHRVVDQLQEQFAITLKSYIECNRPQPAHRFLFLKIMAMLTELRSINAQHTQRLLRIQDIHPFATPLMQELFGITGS

[9] = target: T2, Orexin receptor type 2 (Canis lupus familiaris) (UniProt Q9TUP7); test: Antagonist activity at dog OX2R by FLIPR assay
T2 sequence (whole entry): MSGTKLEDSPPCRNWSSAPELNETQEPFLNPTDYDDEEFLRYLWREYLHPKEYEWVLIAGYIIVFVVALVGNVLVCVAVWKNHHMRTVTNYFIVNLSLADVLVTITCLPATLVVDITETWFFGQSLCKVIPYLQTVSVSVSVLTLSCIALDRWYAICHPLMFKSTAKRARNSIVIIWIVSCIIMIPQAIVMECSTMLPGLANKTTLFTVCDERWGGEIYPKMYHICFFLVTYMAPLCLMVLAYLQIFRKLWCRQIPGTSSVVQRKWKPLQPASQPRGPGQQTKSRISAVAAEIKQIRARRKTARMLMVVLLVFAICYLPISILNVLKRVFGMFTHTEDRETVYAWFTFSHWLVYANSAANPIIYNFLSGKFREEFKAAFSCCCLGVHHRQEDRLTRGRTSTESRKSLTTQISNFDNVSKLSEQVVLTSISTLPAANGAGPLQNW

[10] = Cmax in rat at 5 mg/kg, po; format: ADME, organism-based; set-up: dose 5 mg/kg, route oral; settings: in vivo
Mus musculus [11] = test: Increase in rapid eye movement sleep in mouse at 100 mg/kg, po after 2 hrs; format: functional, organism-based; set-up: dose 100 mg/kg
[12] = target: T3, Orexin/Hypocretin receptor type 1 (Rattus norvegicus) (UniProt P56718); test: Antagonist activity at Sprague-Dawley rat OX1R by FLIPR assay
T3 sequence (whole entry): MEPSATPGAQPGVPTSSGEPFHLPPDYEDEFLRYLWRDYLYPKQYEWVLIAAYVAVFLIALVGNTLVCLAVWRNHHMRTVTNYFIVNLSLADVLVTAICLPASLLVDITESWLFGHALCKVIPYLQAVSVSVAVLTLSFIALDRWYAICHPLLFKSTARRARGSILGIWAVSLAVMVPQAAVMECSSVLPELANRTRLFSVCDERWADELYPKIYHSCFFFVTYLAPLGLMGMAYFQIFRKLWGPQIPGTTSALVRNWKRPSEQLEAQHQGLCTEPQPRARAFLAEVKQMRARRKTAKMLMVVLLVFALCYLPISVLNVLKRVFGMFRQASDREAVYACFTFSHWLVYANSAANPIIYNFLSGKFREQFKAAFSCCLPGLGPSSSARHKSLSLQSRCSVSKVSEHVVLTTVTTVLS

Canis familiaris = test: Increase in rapid eye movement sleep in dog at 3 mg/kg, po after 3.5 hrs; format: functional, organism-based; set-up: dose 3 mg/kg; settings: Canis lupus familiaris
Mus musculus [13] = test: Increase in slow wave sleep in mouse at 100 mg/kg, po after 2 hrs; format: functional, organism-based; set-up: dose 100 mg/kg
[14] = Apparent permeability of the compound; format: physicochemical; settings: not told
Mus musculus [15] = test: Increase in rapid eye movement sleep in OX2R-knockout mouse at 100 mg/kg, po after 2 hrs; format: functional, organism-based; set-up: dose 100 mg/kg
[16] = Cmax in mouse at 100 mg/kg, po; format: ADME, organism-based; set-up: dose 100 mg/kg, route oral; settings: in vivo
[17] = Plasma protein binding in human; format: ADME, cell-free; settings: read-out: PPB (converted)
[18] = Drug uptake in dog CSF at 3 mg/kg, po; format: ADME, organism-based, Canis lupus familiaris, Cerebrospinal fluid; set-up: dose 3 mg/kg, route oral; settings: in vivo, read-out: Drug uptake
[19] = Clearance in dog with cassette dosing; format: ADME, organism-based, Canis lupus familiaris; settings: in vivo
[20] = Plasma protein binding in Sprague-Dawley rat; format: ADME, cell-free; settings: read-out: PPB (converted)
[21] = Cmax in Sprague-Dawley rat at 15 mg/kg, po; format: ADME, organism-based; set-up: dose 15 mg/kg, route oral; settings: in vivo
Rattus norvegicus [22] = test: Increase in slow wave sleep in Sprague-Dawley rat at 15 mg/kg, po after 2 hrs; format: functional, organism-based; set-up: dose 15 mg/kg
[23] = Lipophilicity, log D of the compound; format: physicochemical; settings: octanol/water
[24] = Tmax in dog at 3 mg/kg, po; format: ADME, organism-based, Canis lupus familiaris; set-up: dose 3 mg/kg, route oral; settings: in vivo
[25] = Oral bioavailability in […] dog at 3 mg/kg; format: ADME, organism-based, Canis lupus familiaris; settings: in vivo
[26] = target: T4, Orexin/Hypocretin receptor type 1 (Mus musculus) (UniProt P58307); test: Antagonist activity at mouse OX1R by FLIPR assay
T4 sequence (whole entry): T3 sequence (whole entry) with H116Q, R205H, F221I, G232A, P245R, S383G

Rattus norvegicus [27] = species: Rattus norvegicus; test: Ex vivo receptor occupancy at human OX2R expressed in transgenic rat at plasma concentration of 1.06 uM; format: functional
Mus musculus [28] = test: Reduction in active wake sleep in mouse at 100 mg/kg, po after 2 hrs; format: functional, organism-based; set-up: dose 100 mg/kg
[29] = Clearance in dog at 1 mg/kg, iv; format: ADME, organism-based, Canis lupus familiaris; set-up: dose 1 mg/kg, route intravenous; settings: in vivo
[30] = target: T1, Nuclear receptor subfamily 1 group I member 2; test: Activation of PXR (unknown origin)
[31] = Drug uptake in Sprague-Dawley rat CSF at 15 mg/kg, po; format: ADME, organism-based, Cerebrospinal fluid; set-up: dose 15 mg/kg, route oral; settings: in vivo, read-out: Drug uptake
Canis lupus familiaris = species: Canis lupus familiaris; test: Antagonist activity at dog OX1R by FLIPR assay

- Tmax [1]: 42 min
- Vd [2]: 1.2 L/kg
- Tmax [4]: 18 min
- Tmax [5]: 48 min
- Cmax [6]: 2700 nM
- Vd [7]: 0.7 L/kg
- Activity [8]: 16%
- INH [9]: 16 nM
- Cmax [10]: 2100 nM
- INH [12]: 36.4 µM
- Papp [14]: 33 ×10⁻⁶ cm/s
- Cmax [16]: 55300 nM
- fraction unbound [17]: 0.04
- concentration [18]: 460 nM
- clearance [19]: 12 mL/min/kg
- fraction unbound [20]: 0.164
- Cmax [21]: 5300 nM
- logD [23]: 1.9
- Tmax [24]: 60 min
- bioavailability [25]: 49%
- INH [26]: 27.2 µM
- clearance [29]: 7.2 mL/min/kg
- EC50 [30]: > 30 µM
- concentration [31]: 900 nM
- INH (Canis lupus familiaris): 10 µM
SMILES: COc1ccc(CNC(=O)c2cc(-c3cncc(C)c3)ncc2-c2nccs2)nc1OC
- Activity (Mus musculus [3]): inactive
- Activity (Mus musculus [11]): Active
- Activity (Canis familiaris): Active
- Activity (Mus musculus [13]): Active
- Activity (Mus musculus [15]): inactive
- Activity (Rattus norvegicus [22]): Active
- Occ (Rattus norvegicus [27]): 90%
- Activity (Mus musculus [28]): Active
